According to patent US9169254B2, “Spiroimidazolone derivative” (Chugai Seiyaku Kabushiki Kaisha, priority 2009, dated 2015):

The compounds below were run against T1, human PTH1 receptor (Homo sapiens, UniProt Q03431) (assay: In vitro cAMP signal activity in HKRK-B7 cells (LLC-PK1 cells overexpressing the human PTH1 receptor)). Conditions: HKRK-B7 cells; compound at 1×10^−3 M; cAMP produced as percentage of that produced by hPTH(1-34) at 100 nM.
T1 sequence (Q03431 27-593): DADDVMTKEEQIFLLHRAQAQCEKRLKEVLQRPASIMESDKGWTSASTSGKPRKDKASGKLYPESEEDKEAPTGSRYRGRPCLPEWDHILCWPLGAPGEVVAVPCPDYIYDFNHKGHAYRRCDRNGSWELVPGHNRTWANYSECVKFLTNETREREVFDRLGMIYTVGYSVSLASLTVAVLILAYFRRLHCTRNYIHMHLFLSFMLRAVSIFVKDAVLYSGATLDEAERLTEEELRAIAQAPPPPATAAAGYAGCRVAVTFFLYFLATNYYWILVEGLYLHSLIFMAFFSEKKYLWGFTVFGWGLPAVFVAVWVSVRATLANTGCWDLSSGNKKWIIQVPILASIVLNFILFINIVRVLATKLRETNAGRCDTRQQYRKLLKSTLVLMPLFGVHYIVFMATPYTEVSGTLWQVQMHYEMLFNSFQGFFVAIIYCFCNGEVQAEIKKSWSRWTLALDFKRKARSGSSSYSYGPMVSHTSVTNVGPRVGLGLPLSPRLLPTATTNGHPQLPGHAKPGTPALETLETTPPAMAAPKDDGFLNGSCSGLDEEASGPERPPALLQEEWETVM
Assay type: cell-based

cAMP production activity (%)	SMILES
69%	CC(=O)Nc1ccc(CCS(=O)(=O)N2CCC3(CC2)N=C(C2CCCCCC2)NC3=O)c(C)c1 [Compound 917, N-{4-[2-(2-Cycloheptyl-4-oxo-1,3,8-triaza-spiro[4.5]dec-1-ene-8-sulfonyl)-ethyl]-3-methyl-phenyl}-acetamide]
63%	CC(=O)Nc1ccc(CCS(=O)(=O)N2CCC3(CC2)N=C(C24CC5CC(CC(C5)C2)C4)NC3=O)c(C)c1 [Compound 918, N-{4-[2-(2-adamantan-1-yl-4-oxo-1,3,8-triaza-spiro[4.5]dec-1-ene-8-sulfonyl)-ethyl]-3-methyl-phenyl}-acetamide]
68%	CC(=O)Nc1ccc(CCS(=O)(=O)N2CCC3(CC2)N=C(C2CCC(COCC(F)(F)F)CC2)NC3=O)c(C)c1 (stereo not drawn) [Compound 919, N-[3-methyl-4-(2-{4-oxo-2-[4-(2,2,2-trifluoro-ethoxymethyl)-cyclohexyl]-1,3,8-triaza-spiro[4.5]dec-1-ene-8-sulfonyl}-ethyl)-phenyl]-acetamide]
70%	CC(=O)Nc1ccc(CCS(=O)(=O)N2CCC3(CC2)N=C(C2CCC(c4ccc(Cl)cc4)CC2)NC3=O)c(C)c1 (stereo not drawn) [Compound 920, N-[4-(2-{2-[4-(4-Chloro-phenyl)-cyclohexyl]-4-oxo-1,3,8-triaza-spiro[4.5]dec-1-ene-8-sulfonyl}-ethyl)-3-methyl-phenyl]-acetamide]
59%	CC(=O)Nc1ccc(CCS(=O)(=O)N2CCC3(CC2)N=C(C2CCC(OCCC(F)(F)F)CC2)NC3=O)c(C)c1 (stereo not drawn) [Compound 921, N-[3-methyl-4-(2-{4-oxo-2-[4-(3,3,3-trifluoro-propoxy)-cyclohexyl]-1,3,8-triaza-spiro[4.5]dec-1-ene-8-sulfonyl}-ethyl)-phenyl]-acetamide]
84%	CC(=O)Nc1ccc(CCS(=O)(=O)N2CCC3(CC2)N=C([C@H]2CC[C@H](CC(F)(F)F)CC2)NC3=O)c(C)c1 [Compound 922, N-[3-methyl-4-(2-{4-oxo-2-[4-(2,2,2-trifluoro-ethyl)-cyclohexyl]-1,3,8-triaza-spiro[4.5]dec-1-ene-8-sulfonyl}-ethyl)-phenyl]-acetamide]
84%	CCC[C@@H]1CCC[C@H](C2=NC3(CCN(S(=O)(=O)CCc4ccc(NC(C)=O)cc4C)CC3)C(=O)N2)C1 [Compound 923, N-(3-methyl-4-{2-[4-oxo-2-((1S,3R)-3-propyl-cyclohexyl)-1,3,8-triaza-spiro[4.5]dec-1-ene-8-sulfonyl]-ethyl}-phenyl)-acetamide]
76%	CC(=O)Nc1ccc(CCS(=O)(=O)N2CCC3(CC2)N=C([C@H]2CCC[C@@H](C)C2)NC3=O)c(C)c1 [Compound 924, N-(3-methyl-4-{2-[2-((1S,3R)-3-methyl-cyclohexyl)-4-oxo-1,3,8-triaza-spiro[4.5]dec-1-ene-8-sulfonyl]-ethyl}-phenyl)-acetamide]
69%	CC(=O)Nc1ccc(CCS(=O)(=O)N2CCC3(CC2)N=C(C2CCC(C)(C)CC2)NC3=O)c(C)c1 [Compound 925, N-(4-{2-[2-(4,4-dimethyl-cyclohexyl)-4-oxo-1,3,8-triaza-spiro[4.5]dec-1-ene-8-sulfonyl]-ethyl}-3-methyl-phenyl)-acetamide]
102%	CC(=O)Nc1ccc(CCS(=O)(=O)N2CCC3(CC2)N=C(C2CC(C)(C)CC(C)(C)C2)NC3=O)c(C)c1 [Compound 926, N-(3-methyl-4-{2-[4-oxo-2-(3,3,5,5-tetramethyl-cyclohexyl)-1,3,8-triaza-spiro[4.5]dec-1-ene-8-sulfonyl]-ethyl}-phenyl)-acetamide]
80%	COCCC1CCC(C2=NC3(CCN(S(=O)(=O)CCc4ccc(NC(C)=O)cc4C)CC3)C(=O)N2)CC1 (stereo not drawn) [Compound 927, N-[4-(2-{2-[4-(2-Methoxy-ethyl)-cyclohexyl]-4-oxo-1,3,8-triaza-spiro[4.5]dec-1-ene-8-sulfonyl}-ethyl)-3-methyl-phenyl]-acetamide]
51%	Cc1cc(CNC(=O)OC(C)(C)C)ccc1CCS(=O)(=O)N1CCC2(CC1)N=C(C1CCC(CCC(F)(F)F)CC1)NC2=O (stereo not drawn) [Compound 928, [3-Methyl-4-(2-{4-oxo-2-[4-(3,3,3-trifluoro-propyl)-cyclohexyl]-1,3,8-triaza-spiro[4.5]dec-1-ene-8-sulfonyl}-ethyl)-benzyl]-carbamic acid tert-butyl ester]
76%	Cc1cc(N(CCO)C(=O)C(C)C)ccc1CCS(=O)(=O)N1CCC2(CC1)N=C(c1cccc(OC(F)(F)F)c1)NC2=O [Compound 929, N-(2-Hydroxy-ethyl)-N-(3-methyl-4-{2-[4-oxo-2-(3-trifluoromethoxy-phenyl)-1,3,8-triaza-spiro[4.5]dec-1-ene-8-sulfonyl]-ethyl}-phenyl)-isobutylamide]
92%	Cc1cc(N(CCO)C(=O)CO)ccc1CCS(=O)(=O)N1CCC2(CC1)N=C(c1cccc(OC(F)(F)F)c1)NC2=O [Compound 930, 2-Hydroxy-N-(2-hydroxy-ethyl)-N-(3-methyl-4-{2-[4-oxo-2-(3-trifluoromethoxy-phenyl)-1,3,8-triaza-spiro[4.5]dec-1-ene-8-sulfonyl]-ethyl}-phenyl)-acetamide]
72%	Cc1cc(N(C)C(=O)C(F)(F)F)cc(C)c1CCS(=O)(=O)N1CCC2(CC1)N=C([C@H]1CC[C@H](C)CC1)NC2=O [Compound 931, N-(3,5-Dimethyl-4-{2-[2-(4-methyl-cyclohexyl)-4-oxo-1,3,8-triaza-spiro[4.5]dec-1-ene-8-sulfonyl]-ethyl}-phenyl)-2,2,2-trifluoro-N-methyl-acetamide]
66%	Cc1cc(N(C)C(=O)C(F)(F)F)cc(C)c1CCS(=O)(=O)N1CCC2(CC1)N=C(C1CCCC(C)C1)NC2=O (stereo not drawn) [Compound 932, N-(3,5-Dimethyl-4-{2-[2-(3-methyl-cyclohexyl)-4-oxo-1,3,8-triaza-spiro[4.5]dec-1-ene-8-sulfonyl]-ethyl}-phenyl)-2,2,2-trifluoro-N-methyl-acetamide]
60%	Cc1cc(N(C)C(=O)C(F)(F)F)cc(C)c1CCS(=O)(=O)N1CCC2(CC1)N=C(C1CC(C)(C)CC(C)(C)C1)NC2=O [Compound 933, N-(3,5-dimethyl-4-{2-[4-oxo-2-(3,3,5,5-tetramethyl-cyclohexyl)-1,3,8-triaza-spiro[4.5]dec-1-ene-8-sulfonyl]-ethyl}-phenyl)-2,2,2-trifluoro-N-methyl-acetamide]
87%	Cc1cc(N(C)C(N)=O)cc(C)c1CCS(=O)(=O)N1CCC2(CC1)N=C(C1CCCCCC1)NC2=O [Compound 934, 1-{4-[2-(2-Cycloheptyl-4-oxo-1,3,8-triaza-spiro[4.5]dec-1-ene-8-sulfonyl)-ethyl]-3,5-dimethyl-phenyl}-1-methyl-urea]
112%	Cc1cc(N(C)C(N)=O)cc(C)c1CCS(=O)(=O)N1CCC2(CC1)N=C(c1cccc(OC(F)(F)F)c1)NC2=O [Compound 935, 1-(3,5-dimethyl-4-{2-[4-oxo-2-(3-trifluoromethoxy-phenyl)-1,3,8-triaza-spiro[4.5]dec-1-ene-8-sulfonyl]-ethyl}-phenyl)-1-methyl-urea]
98%	Cc1cc(N(C)C(N)=O)cc(C)c1CCS(=O)(=O)N1CCC2(CC1)N=C(C1CCC(CC(F)(F)F)CC1)NC2=O (stereo not drawn) [Compound 936, 1-[3,5-Dimethyl-4-(2-{4-oxo-2-[4-(2,2,2-trifluoro-ethyl)-cyclohexyl]-1,3,8-triaza-spiro[4.5]dec-1-ene-8-sulfonyl}-ethyl)-phenyl]-1-methyl-urea]
120%	Cc1cc(N(C)C(N)=O)c(Cl)c(C)c1CCS(=O)(=O)N1CCC2(CC1)N=C(C1CCC(CC(F)(F)F)CC1)NC2=O (stereo not drawn) [Compound 937, 1-[2-chloro-3,5-dimethyl-4-(2-{4-oxo-2-[4-(2,2,2-trifluoro-ethyl)-cyclohexyl]-1,3,8-triaza-spiro[4.5]dec-1-ene-8-sulfonyl}-ethyl)-phenyl]-1-methyl-urea]
97%	Cc1cc(N(C)C(N)=O)cc(C)c1CCS(=O)(=O)N1CCC2(CC1)N=C(C1CCC(C)(C)CC1)NC2=O [Compound 938, 1-(4-{2-[2-(4,4-dimethyl-cyclohexyl)-4-oxo-1,3,8-triaza-spiro[4.5]dec-1-ene-8-sulfonyl]-ethyl}-3,5-dimethyl-phenyl)-1-methyl-urea]
111%	Cc1cc(N(C)C(N)=O)cc(C)c1CCS(=O)(=O)N1CCC2(CC1)N=C(C1CCC(=CCC(F)(F)F)CC1)NC2=O (stereo not drawn) [Compound 939, 1-[3,5-Dimethyl-4-(2-{4-oxo-2-[4-(3,3,3-trifluoro-propylidene)-cyclohexyl]-1,3,8-triaza-spiro[4.5]dec-1-ene-8-sulfonyl}-ethyl)-phenyl]-1-methyl-urea]
86%	Cc1cc(N(C)C(N)=O)cc(C)c1CCS(=O)(=O)N1CCC2(CC1)N=C(C1CCC(CC=C(F)F)CC1)NC2=O (stereo not drawn) [Compound 940, 1-[4-(2-{2-[4-(3,3-difluoro-allyl)-cyclohexyl]-4-oxo-1,3,8-triaza-spiro[4.5]dec-1-ene-8-sulfonyl}-ethyl)-3,5-dimethyl-phenyl]-1-methyl-urea]
